Like-named read-outs stand apart in the source and are kept apart here.
What was measured:
[1] = molecular target: BCL6 BTB domain (biotin-thrombin-BCL6 amino acids 1-129) (Homo sapiens (Human), UniProt P41182); assay: Surface Plasmon Resonance (SPR) assay; assay type: binding; settings: Biacore T200, single cycle kinetic analysis
Protocol: Surface Plasmon Resonance (SPR) Assay
SPR studies were performed using a Biacore™ T200 instrument (GE Health Sciences Inc.). […] The Biacore flow rate was set at 100 μl/min. […] Curve fitting and KD calculations were performed with the Biacore T200 Evaluation software (GE Health Sciences Inc).

[2] = tested on: BCL6 reporter construct in SuDHL4-3×BCL6-TK-Luc cells; assay: Cell-based luciferase assay (BCL6 reporter); settings: 48 h, read-out: Luc IC50
Protocol: Cell-Based Luciferase Assay:
A BCL6 reporter construct containing three copies of the consensus BCL6 binding site, the TK promoter, and the firefly luciferase gene was stably expressed in SuDHL4 cells after lentivirus infection and selection with Blasticidin. SuDHL4-3×BCL6-TK-Luc cells were seeded into a Viewplate 384-well assay dish at 15,000 cells/well in […] (Alpha-MEM high glucose containing 10% FBS, 25 mM HEPES, […] GlutaMAX, 100 µg/mL Normocin, and […] Gentamycin, Invitrogen). A HP D300 digital dispenser was used to dose cells with DMSO or test compounds across a 10-point range of concentrations (high dose of 10 μM), and cultures were grown in a humidified 5% CO2 incubator at 37° C. After two days, plates were removed from the incubator and equilibrated to room temperature. An equal volume of neolite reporter gene assay reagent was added to each well, and samples were processed according to the manufacturer's instructions (Perkin Elmer). The luminescent signal was measured using an Envision plate reader equipped with a US-Luminescence detector.

[3] = tested on: Karpas422 cells; assay: Tumor cell growth inhibition assay; assay type: cell-based; settings: Homo sapiens, KARPAS-422, 144 h, read-out: GI Karpas EC50
Protocol: Tumor Cell Growth Inhibition Assay:
Karpas422 cells were seeded into a 96-well plate at 2,000 cells/well in 150 μl medium (Alpha-MEM containing 10% FBS, […] Normocin, and […] Gentamycin, Invitrogen). A HP D300 digital dispenser was used to dose cells with DMSO or test compounds across a 10-point range of concentrations (high dose of 5 μM), and cultures were grown in a humidified 5% CO2 incubator at 37° C. After six days, plates were removed from incubator and equilibrated to room temperature. An equal volume of ATPlite assay reagent was added to each well, and samples were processed according to the manufacturer's instructions (Perkin Elmer). The luminescent signal was measured using an Envision plate reader equipped with a US-Luminescence detector.

[4] = SuDHL4-3×BCL6-TK-Luc cells, two days
[5] = Karpas422 cells, six days, ATPlite

| SMILES | Kd [1] [nM] | IC50 [2, 4] [nM] | EC50 [3, 5] [nM] | IC50 [2] [nM] | EC50 [3] [nM] |
| --- | --- | --- | --- | --- | --- |
| COc1c(O)c(C(N)=O)cc(-c2cn(CC(=O)Nc3cc(N4CCN(C5COC5)C[C@@H]4C)ncc3Cl)c3nc4n(c(=O)c23)CCC4)c1F [I-19, (S)-5-(1-(2-((5-chloro-2-(2-methyl-4-(oxetan-3-yl)piperazin-1-yl)pyridin-4-yl)amino)-2-oxoethyl)-4-oxo-4,6,7,8-tetrahydro-1H-dipyrrolo[1,2-a:2′,3′-d]pyrimidin-3-yl)-4-fluoro-2-hydroxy-3-methoxybenzamide] | 26.6 | 501 | 513 |  |  |
| C[C@H]1CN(C2COC2)CCN1c1cc(NC(=O)Cn2cc(-c3cc(C(N)=O)c(O)c(F)c3F)c3c(=O)n4c(nc32)CCC4)c(Cl)c(F)n1 [I-20, (S)-5-(1-(2-((3-chloro-2-fluoro-6-(2-methyl-4-(oxetan-3-yl)piperazin-1-yl)pyridin-4-yl)amino)-2-oxoethyl)-4-oxo-4,6,7,8-tetrahydro-1H-dipyrrolo[1,2-a:2′,3′-d]pyrimidin-3-yl)-3,4-difluoro-2-hydroxy-benzamide] | 3.96 | 61.2 | 57.6 |  |  |
| CC1CN(C)CC(C)N1c1cc(NC(=O)Cn2cc(-c3cc(C(N)=O)c(O)c(F)c3F)c3c(=O)n4c(nc32)CCC4)c(Cl)cn1 (stereo not drawn) [I-21, 5-(1-(2-((5-chloro-2-(2,4,6-trimethyl-piperazin-1-yl)pyridin-4-yl)amino)-2-oxoethyl)-4-oxo-4,6,7,8-tetrahydro-1H-dipyrrolo[1,2-a:2′,3′-d]pyrimidin-3-yl)-3,4-difluoro-2-hydroxy-benzamide] | 25.6 |  |  | 355 | 329 |
| CN(C)c1cc(NC(=O)Cn2cc(-c3cc(C(N)=O)c(O)c(F)c3F)c3c(=O)n4c(nc32)CCC4)c(Cl)c(F)n1 [I-22, 5-(1-(2-((3-chloro-6-(dimethylamino)-2-fluoropyridin-4-yl)amino)-2-oxoethyl)-4-oxo-4,6,7,8-tetrahydro-1H-dipyrrolo [1,2-a:2′,3′-d]pyrimidin-3-yl)-3,4-difluoro-2-hydroxybenzamide] | 11.8 | 274 | 146 |  |  |
| CCN1CCN(c2cc(NC(=O)Cn3cc(-c4cc(C(N)=O)c(O)c(F)c4F)c4c(=O)n5c(nc43)CCC5)c(Cl)c(F)n2)[C@@H](C)C1 [I-23, (S)-5-(1-(2-((3-chloro-6-(4-ethyl-2-methyl-piperazin-1-yl)-2-fluoro-pyridin-4-yl)amino)-2-oxoethyl)-4-oxo-4,6,7,8-tetrahydro-1H-dipyrrolo [1,2-a:2′,3′-d]pyrimidin-3-yl)-3,4-difluoro-2-hydroxybenzamide] | 7.97 | 91.5 | 102 |  |  |
| C[C@H]1CN(CC2CC2)CCN1c1cc(NC(=O)Cn2cc(-c3cc(C(N)=O)c(O)c(F)c3F)c3c(=O)n4c(nc32)CCC4)c(Cl)c(F)n1 [I-24, (S)-5-(1-(2-((3-chloro-6-(4-(cyclopropylmethyl)-2-methylpiperazin-1-yl)-2-fluoropyridin-4-yl)amino)-2-oxoethyl)-4-oxo-4,6,7,8-tetrahydro-1H-dipyrrolo[1,2-a:2′,3′-d]pyrimidin-3-yl)-3,4-difluoro-2-hydroxy-benzamide] | 12.3 | 152 | 134 |  |  |
| COCCN1CCN(c2cc(NC(=O)Cn3cc(-c4cc(C(N)=O)c(O)c(F)c4F)c4c(=O)n5c(nc43)CCC5)c(Cl)c(F)n2)[C@@H](C)C1 [I-25, (S)-5-(1-(2-((3-chloro-2-fluoro-6-(4-(2-methoxyethyl)-2-methyl-piperazin-1-yl)pyridin-4-yl)amino)-2-oxoethyl)-4-oxo-4,6,7,8-tetrahydro-1H-dipyrrolo[1,2-a:2′,3′-d]pyrimidin-3-yl)-3,4-difluoro-2-hydroxy-benzamide] | 5.64 | 78.7 | 75.1 |  |  |
| C[C@H]1CN(C2COC2)CCN1c1cc(NC(=O)Cn2cc(-c3cc(C(N)=O)c(O)c(Cl)c3F)c3c(=O)n4c(nc32)CCC4)c(Cl)c(F)n1 [I-26, (S)-3-chloro-5-(1-(2-((3-chloro-2-fluoro-6-(2-methyl-4-(oxetan-3-yl)piperazin-1-yl)pyridin-4-yl)amino)-2-oxoethyl)-4-oxo-4,6,7,8-tetrahydro-1H-dipyrrolo[1,2-a:2′,3′-d]pyrimidin-3-yl)-4-fluoro-2-hydroxy-benzamide] | 30.2 | 585 | 549 |  |  |
| CN(C)c1cc(NC(=O)Cn2cc(-c3cc(C(N)=O)c(O)c(Cl)c3F)c3c(=O)n4c(nc32)CCC4)c(Cl)c(F)n1 [I-27, 3-chloro-5-(1-(2-((3-chloro-6-(dimethyl-amino)-2-fluoro-pyridin-4-yl)amino)-2-oxoethyl)-4-oxo-4,6,7,8-tetrahydro-1H-dipyrrolo[1,2-a:2′,3′-d]pyrimidin-3-yl)-4-fluoro-2-hydroxy-benzamide] | 190 |  |  | 1140 | 1630 |
| CCN1CCN(c2cc(NC(=O)Cn3cc(-c4cc(C(N)=O)c(O)c(Cl)c4F)c4c(=O)n5c(nc43)CCC5)c(Cl)c(F)n2)[C@@H](C)C1 [I-28, (S)-3-chloro-5-(1-(2-((3-chloro-6-(4-ethyl-2-methylpiperazin-1-yl)-2-fluoropyridin-4-yl)amino)-2-oxoethyl)-4-oxo-4,6,7,8-tetra-hydro-1H-dipyrrolo [1,2-a:2′,3′-d]pyri-midin-3-yl)-4-fluoro-2-hydroxybenzamide] | 135 | 1340 | 779 |  |  |
| C[C@H]1CN(CC2CC2)CCN1c1cc(NC(=O)Cn2cc(-c3cc(C(N)=O)c(O)c(Cl)c3F)c3c(=O)n4c(nc32)CCC4)c(Cl)c(F)n1 [I-29, (S)-3-chloro-5-(1-(2-((3-chloro-6-(4-(cyclopropylmethyl)-2-methylpiperazin-1-yl)-2-fluoropyridin-4-yl)amino)-2-oxoethyl)-4-oxo-4,6,7,8-tetra-hydro-1H-dipyrrolo [1,2-a:2′,3′-d]pyrimi-din-3-yl)-4-fluoro-2-hydroxybenzamide] | 240 |  |  | 2150 | 2590 |
| NC(=O)c1cc(-c2cn(CC(=O)Nc3cc(N4CCOCC4)c(F)cc3Cl)c3nc4n(c(=O)c23)CCC4)c(F)c(F)c1O [I-30, 5-(1-(2-((2-chloro-4-fluoro-5-morpholino-phenyl)amino)-2-oxo-ethyl)-4-oxo-4,6,7,8-tetrahydro-1H-dipyrrolo [1,2-a:2′,3′-d]pyrimidin-3-yl)-3,4-difluoro-2-hydroxybenzamide] | 106 |  |  | 1110 | 980 |
| NC(=O)c1cc(-c2cn(CC(=O)Nc3cc(N4CCOCC4)ccc3Cl)c3nc4n(c(=O)c23)CCC4)c(F)c(F)c1O [I-31, 5-(1-(2-((2-chloro-5-morpholinophenyl)amino)-2-oxoethyl)-4-oxo-4,6,7,8-tetrahydro-1H-dipyrrolo[1,2-a:2′,3′-d]pyrimidin-3-yl)-3,4-difluoro-2-hydroxy-benzamide] | 141 |  |  | 6300 | 2690 |
| CN1CCN(c2ccc(Cl)c(NC(=O)Cn3cc(-c4cc(C(N)=O)c(O)c(F)c4F)c4c(=O)n5c(nc43)CCC5)c2)CC1 [I-32, 5-(1-(2-((2-chloro-5-(4-methylpiperazin-1-yl)phenyl)amino)-2-oxo-ethyl)-4-oxo-4,6,7,8-tetrahydro-1H-dipyrrolo [1,2-a:2′,3′-d]pyrimidin-3-yl)-3,4-difluoro-2-hydroxybenzamide] | 261 | 3580 | 1340 |  |  |
| C[C@H]1CN(C)CCN1c1cc(NC(=O)Cn2cc(-c3cc(C(N)=O)c(O)c(F)c3F)c3c(=O)n4c(nc32)COCC4)c(Cl)c(F)n1 [I-33, (S)-5-(1-(2-((3-chloro-6-(2,4-dimethylpiperazin-1-yl)-2-fluoropyridin-4-yl)amino)-2-oxoethyl)-4-oxo-4,6,7,9-tetrahydro-1H-pyrrolo[2′,3′:4,5]pyrimido[2,1-c][1,4]oxazin-3-yl)-3,4-difluoro-2-hydroxybenzamide] | 11 |  |  | 149 | 214 |
| C[C@H]1CN(C2COC2)CCN1c1cc(NC(=O)Cn2cc(-c3cc(C(N)=O)c(O)c(F)c3F)c3c(=O)n4c(nc32)COCC4)c(Cl)c(F)n1 [I-34, (S)-5-(1-(2-((3-chloro-2-fluoro-6-(2-methyl-4-(oxetan-3-yl)piperazin-1-yl)pyridin-4-yl)amino)-2-oxoethyl)-4-oxo-4,6,7,9-tetrahydro-1H-pyrrolo[2′,3′:4,5]pyrimido [2,1-c][1,4]oxazin-3-yl)-3,4-difluoro-2-hydroxy-benzamide] | 7.24 |  |  | 155 | 177 |
